Legend:
[1] = target: T1, BTB/POZ-Δ513 interaction (Arabidopsis thaliana, UniProt P93002); assay: BTB/POZ-Δ513 pull-down assay; assay type: biochemical; parameters: made in house; host or cells: E. coli; details: 1 mM SA
T1 sequence (P93002 513-593): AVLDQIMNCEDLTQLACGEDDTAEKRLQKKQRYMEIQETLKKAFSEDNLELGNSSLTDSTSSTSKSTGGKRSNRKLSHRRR
Experimental: The BTB/POZ (amino acids 1-190 of NPR1) was expressed in E. coli as a C-terminal fusion to the Strep-Tag according to standard protocols. The Δ513 of NPR1 was expressed as an N-terminal fusion to the HA-Tag as described above. The VLRSgt (as described in Hall et al. (2007) Plant J 49, 579-591) was expressed in E. coli as an N-terminal fusion to the GST-Tag according to standard protocols. The pull-down assay was performed in the Strep-Tactin buffer. The antibodies used for detecting the tags in the BTB/POZ-Strep was from Qiagen (catalog #34850) and those used for the tags in HA-Δ513 or the GST-VLRSgt were from Santa Cruz Biotechnology (catalog #: sc-7392 and sc-138).
Given that the plant two-hybrid system is an in vivo method of analysis, an indirect effect of SA on the interaction of the BTB/POZ and the C-terminus of NPR1 cannot be ruled out. Thus, the interaction in vitro in a pull-down assay (FIG. 8) was tested. […] As negative controls, first an unrelated protein (VLRSgt) was shown not to interact with BTB/POZ (FIG. 5D) and secondly Δ513 was shown not to interact with the solid support in the absence of BTB/POZ (FIG. 5E).

[2] = target: T2, NPR1 (Arabidopsis thaliana, UniProt P93002); assay: Sephacryl S300 gel filtration of Strep-tagged NPR1; assay type: biochemical
T2 construct: made in house; host or cells: E. coli
Experimental: (§1) Strep-tagged purified proteins in a final volume of 2 ml were subjected to gel filtration analysis on the Sephacryl S100 HR or Sephacryl S300 HR packed in 50 cm long HR 16 columns (GE Health) and equilibrated with S300 chromatography buffer (50 mM HEPES, pH 7.4, 250 mM NaCl. Elutions, in 0.5 ml fractions, were performed in the same buffer at a flow rate of 0.8 ml/min. Where indicated, proteins were incubated with 1 mM SA, 1 mM catechol, 1 mM 4-hydroxy benzoic acid, or 1 mM methyl-salicylate at room temperature for 30 min prior to chromatography as described above with the exception that the chromatography buffer was supplemented with 1 mM SA, 1 mM catechol, 1 mM 4-hydroxy benzoic acid, or 1 mM methyl-salicylate, respectively. In the case of the EDTA treatment, NPR1 was stripped of its metal by a 50 mM EDTA treatment of 30 min, followed by an incubation of 30 min with 1 mM SA prior to gel filtration. In this case, the chromatography buffer was supplemented with 1 mM SA.

[3] = target: T3, NPR1 C521S/C529S (Arabidopsis thaliana, UniProt P93002, C521S/C529S); assay: Sephacryl S300 gel filtration of NPR1 Cys-to-Ser mutant; assay type: biochemical; details: 1 mM SA
T3 construct: both full-length NPR1 and Δ513 harboring C-to-S mutations at Cys^521/529; made in house; host or cells: E. coli
Experimental: as §1

[4] = target: T1, BTB/POZ-Δ513 interaction; assay: in vivo plant two-hybrid assay; assay type: cell-based; parameters: expressed in transfected cells; host or cells: Arabidopsis thaliana (Columbia) leaves, biolistic bombardment; details: 1 mM salicylic acid in medium, reporter mRNA
Experimental: Arabidopsis thaliana (Columbia) leaves were harvested from four-week-old plants grown at 21° C. (day) and 18° C. (night) with a ten-hour photoperiod and transferred to Petri dishes containing MS salts and micronutrients supplemented with B5 vitamins, 1% sucrose and 0.8% agar at a pH of 5.8. […] Coating of the gold particles and general procedures and preparation of the biolistic experiments were as per the manufacturer's instructions (Bio-Rad). After bombardment, leaves were kept in the conditions described above for a period of 24 hours before assaying. Enzyme assays were performed using the Dual-Luciferase Reporter Assay® system (Promega) following the manufacturer's instructions. Luminescence was measured on a Berthold Lumat LB9507 Luminometer (Bad Wildbad, Germany) and the data obtained represented the value of the reporter gene divided by the value of the internal standard and expressed as Relative Luciferase Units. To increase signal-to-noise ratio in some experiments, qPCR was performed to measure the amount of Firefly and Renilla Luciferases mRNA. […]
Since BTB/POZ domains can be autoinhibitory, it was determined whether or not the NPR1 BTB/POZ can interact with the NPR1 transactivation domain. […] Here the reporter gene was monitored through its mRNA as opposed to its enzyme activity, which provided a greater signal-to-noise ratio (see Experimental Procedures). […]

[5] = target: T4, Δ513 (Arabidopsis thaliana, UniProt P93002); assay: Sephacryl S100 gel filtration of Strep-tagged Δ513; assay type: biochemical; details: 1 mM SA
T4 construct: made in house; host or cells: E. coli
T4 sequence (P93002 513-593): T1 sequence (P93002 513-593)
Experimental: as §1

T2 sequence (P93002 whole entry): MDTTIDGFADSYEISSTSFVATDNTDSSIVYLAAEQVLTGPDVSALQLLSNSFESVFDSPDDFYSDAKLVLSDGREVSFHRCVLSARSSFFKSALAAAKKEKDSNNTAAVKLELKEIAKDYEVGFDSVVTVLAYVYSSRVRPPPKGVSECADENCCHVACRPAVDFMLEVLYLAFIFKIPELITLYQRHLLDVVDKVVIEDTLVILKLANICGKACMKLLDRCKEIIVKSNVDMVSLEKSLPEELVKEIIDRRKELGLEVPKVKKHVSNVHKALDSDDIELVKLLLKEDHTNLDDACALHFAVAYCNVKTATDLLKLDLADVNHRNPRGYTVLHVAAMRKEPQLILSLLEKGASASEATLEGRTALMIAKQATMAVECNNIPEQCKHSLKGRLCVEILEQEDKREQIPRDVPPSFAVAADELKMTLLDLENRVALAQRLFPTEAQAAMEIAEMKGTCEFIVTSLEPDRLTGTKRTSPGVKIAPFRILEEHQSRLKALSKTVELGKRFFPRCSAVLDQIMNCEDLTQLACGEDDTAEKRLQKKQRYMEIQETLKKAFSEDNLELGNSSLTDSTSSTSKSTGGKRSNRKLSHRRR
T3 sequence (P93002 whole entry C521S/C529S): as the sequence (P93002 whole entry) above, with C521S, C529S counted along it

O=C(O)c1ccccc1O [SA, Salicylic acid]
BTB/POZ-Δ513 interaction in pull-down [1]: disrupted | conformation of NPR1 (S300 elution profile) ([2]; 1 mM SA, catechol, 4-hydroxy benzoic acid or methyl-salicylate, 30 min, DTT concentration not given): redistributed to the included volume | SA-induced NPR1 conformation change after metal chelation ([2]; 50 mM EDTA 30 min, then 1 mM SA 30 min): abolished the NPR1 conformation change | SA-induced NPR1 conformation change, Cys521/529 mutant [3]: abolished the NPR1 conformation change | BTB/POZ-Δ513 interaction in plant two-hybrid [4]: disrupts the BTB/POZ-Δ513 association | stoichiometry of Δ513 after SA treatment (S100) [5]: consistent with that of a dimer

Source: patent publication US10674724B2, “Method of activating immune response in plants” (priority 2012, dated 2020)
